Values of other authors, collected in patent US9173848B2, “Solid pharmaceutical fixed dose compositions comprising irbesartan and amlodipine, their preparation and their therapeutic application” (SANOFI, priority 2009, dated 2015).

Key:
[1] = in vivo

Compound | media of maximum solubility (parabolic pH solubility profile) | solubility in water | absolute bioavailability [1]
CCCCC1=NC2(CCCC2)C(=O)N1Cc1ccc(-c2ccccc2-c2nnn[nH]2)cc1 [Irbesartan, 2-n-butyl-4-spirocyclopentane-1-[(2′-(tetrazol-5-yl)biphenyl-4-yl)methyl]-2-imidazolin-5-one] | 0.1 N HCl and pH 7.5 phosphate buffer | insoluble | –
CCOC(=O)C1=C(COCCN)NC(C)=C(C(=O)OC)C1c1ccccc1Cl (stereo not shown) [Amlodipine besylate] | – | slightly soluble | 64-90%
